Tests used:
Assay in all cases: MIC, broth microdilution (CLSI), substance alone or ATB combined with compound at 4 or 8 μg/mL
[1] = tested on: SPN 49619; format: cell-based, S. pneumoniae; settings: SPN 49619; for MIC ATB combined with Example: Example @4 μg/ml; for MIC ATB combined with Example compound: compound @4 μg/ml
How it was run: (§1)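 Per CLSI-M7-A7, MICs are determined in cation-adjusted Mueller-Hinton broth with a final inoculum of 5·10^5 CFU/mL. Plates incubate 16-20 h at 35° C in air and are read by eye. Fosfomycin assays carry 25 μg/ml glucose-6-phosphate.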

[2] = tested on: ECL P99; format: cell-based, E. cloacae; settings: ECL P99; for MIC ATB combined with Example: Example @4 μg/ml
How it was run: as §1

[3] = tested on: KPN BAA-1898; format: cell-based, K. pneumoniae; settings: KPN BAA-1898; for MIC ATB combined with Example: Example @4 μg/ml
How it was run: as §1

[4] = tested on: KPN UFR42; format: cell-based, K. pneumoniae; settings: KPN UFR42; for MIC ATB combined with Example: Example @4 μg/ml; for MIC ATB combined with Example compound: compound @4 μg/ml
How it was run: as §1

[5] = tested on: KPN 6299; format: cell-based, K. pneumoniae; settings: for MIC ATB combined with Example: Example @4 μg/ml
How it was run: as §1

[6] = tested on: PAE UFR48; format: cell-based, P. aeruginosa; settings: PAE UFR48; for MIC ATB combined with Example: Example @4 μg/ml; for MIC ATB combined with Example compound: compound @4 μg/ml
How it was run: as §1

[7] = tested on: PAE UFR90; format: cell-based, P. aeruginosa; settings: PAE UFR90; for MIC ATB combined with Example: Example @4 μg/ml; for MIC ATB combined with Example compound: compound @4 μg/ml
How it was run: as §1

[8] = tested on: PAE 105250; format: cell-based, P. aeruginosa; settings: PAE 105250; for MIC ATB combined with Example: Example @4 μg/ml; for MIC ATB combined with Example compound: compound @4 μg/ml
How it was run: as §1

[9] = tested on: ECO 190317; format: cell-based, E. coli; settings: ECO 190317; for MIC ATB combined with Example: Example @4 μg/ml
How it was run: as §1

[10] = tested on: ECO UFR39; format: cell-based, E. coli; settings: ECO UFR39; for MIC ATB combined with Example: Example @4 μg/ml; for MIC ATB combined with Example compound: compound @4 μg/ml
How it was run: as §1

[11] = tested on: SAU 29213; format: cell-based, S. aureus; settings: for MIC ATB combined with Example / MIC ATB combined with Example compound: SAU 29213; for MIC ATB combined with Example: Example @4 μg/ml; for MIC ATB combined with Example compound: compound @4 μg/ml
How it was run: as §1

`O=C1N2CC(n3ccnn3)=C[C@H](C2)N1OS(=O)(=O)[O-].[Na+]` [Example 16, sodium [(5R)-7-oxo-3-(triazol-1-yl)-1,6-diazabicyclo[3.2.1]oct-3-en-6-yl] sulfate] was tested, and the “MIC ATB combined with Example” value ([1]; ATB ATM) was over 32 µg/mL, the “MIC ATB combined with Example” value ([1]; ATB FEP) was “<=0.031 μg/mL” and the “MIC ATB combined with Example” value ([1]; ATB FOS) was 8 µg/mL. The “MIC ATB combined with Example” value ([1]; ATB MEM) was “<=0.031 μg/mL”, the “MIC ATB combined with Example” value ([1]; ATB PIP) was 0.5 µg/mL and the “MIC ATB combined with Example compound” value ([1]; MIC of CIP) was “<=0.031 μg/mL”. The “MIC ATB combined with Example compound” value ([1]; MIC of CLI) was under 0.0010 µg/mL, the “MIC ATB combined with Example compound” value ([1]; MIC of CPO) was “<=0.031 μg/mL” and the “MIC ATB combined with Example compound” value ([1]; MIC of DAP) was 0.031 µg/mL. The “MIC ATB combined with Example compound” value ([1]; MIC of ERY) was under 0.0020 µg/mL, the “MIC ATB combined with Example compound” value ([1]; MIC of LZD) was 0.125 µg/mL and the “MIC ATB combined with Example compound” value ([1]; MIC of RIF) was 0.00049 µg/mL. For the same compound, the “MIC ATB combined with Example compound” value ([1]; MIC of SYN) was 0.5 µg/mL, the “MIC ATB combined with Example compound” value ([1]; MIC of VAN) was 0.0078 µg/mL and the MIC ([1]; substance alone) was 4 µg/mL. For the same compound, the “MIC ATB combined with Example” value ([2]; ATB ATM) was under 0.031 µg/mL, the “MIC ATB combined with Example” value ([2]; ATB FEP) was under 0.031 µg/mL and the “MIC ATB combined with Example” value ([2]; ATB FOS) was under 0.125 µg/mL. For the same compound, the “MIC ATB combined with Example” value ([2]; ATB MEM) was under 0.031 µg/mL, the “MIC ATB combined with Example” value ([2]; ATB PIP) was under 0.031 µg/mL and the “MIC ATB combined with Example compound” value ([2]; MIC of CIP, compound @4 μg/ml) was “<=0.031 μg/mL”. For the same compound, the MIC ([2]; substance alone) was 1 µg/mL, the “MIC ATB combined with Example” value ([3]; ATB ATM) was under 0.031 µg/mL and the “MIC ATB combined with Example” value ([3]; ATB FEP) was under 0.031 µg/mL. The “MIC ATB combined with Example” value ([3]; ATB FOS) was under 0.125 µg/mL, the “MIC ATB combined with Example” value ([3]; ATB MEM) was under 0.031 µg/mL and the “MIC ATB combined with Example” value ([3]; ATB PIP) was under 0.031 µg/mL. For the same compound, the “MIC ATB combined with Example compound” value ([3]; MIC of CIP, compound @4 μg/ml) was under 0.031 µg/mL, the MIC ([3]; substance alone) was 1 µg/mL and the “MIC ATB combined with Example” value ([4]; ATB ATM) was under 0.031 µg/mL. The “MIC ATB combined with Example” value ([4]; ATB FEP) was under 0.031 µg/mL, the “MIC ATB combined with Example” value ([4]; ATB FOS) was under 0.125 µg/mL and the “MIC ATB combined with Example” value ([4]; ATB MEM) was under 0.031 µg/mL. The “MIC ATB combined with Example” value ([4]; ATB PIP) was under 0.031 µg/mL, the “MIC ATB combined with Example compound” value ([4]; MIC of CIP) was under 0.031 µg/mL and the “MIC ATB combined with Example compound” value ([4]; MIC of CPO) was under 0.031 µg/mL. The MIC ([4]; substance alone) was 2 µg/mL, the “MIC ATB combined with Example” value ([5]; ATB ATM) was under 0.031 µg/mL and the “MIC ATB combined with Example” value ([5]; ATB FEP) was under 0.031 µg/mL. The “MIC ATB combined with Example” value ([5]; ATB FOS) was under 0.125 µg/mL, the “MIC ATB combined with Example” value ([5]; ATB MEM) was under 0.031 µg/mL and the “MIC ATB combined with Example” value ([5]; ATB PIP) was under 0.031 µg/mL. The “MIC ATB combined with Example compound” value ([5]; MIC of CIP, compound @4 μg/ml) was under 0.031 µg/mL, the “MIC ATB combined with Example” value ([6]; ATB ATM) was 8 µg/mL and the “MIC ATB combined with Example” value ([6]; ATB FEP) was 16 µg/mL. The “MIC ATB combined with Example” value ([6]; ATB FOS) was 32 µg/mL, the “MIC ATB combined with Example” value ([6]; ATB MEM) was 0.25 µg/mL and the “MIC ATB combined with Example” value ([6]; ATB PIP) was 16 µg/mL. For the same compound, the “MIC ATB combined with Example compound” value ([6]; MIC of CIP) was 4 µg/mL, the “MIC ATB combined with Example compound” value ([6]; MIC of CPO) was over 32 µg/mL and the MIC ([6]; substance alone) was 32 µg/mL. For the same compound, the “MIC ATB combined with Example” value ([7]; ATB ATM) was 16 µg/mL, the “MIC ATB combined with Example” value ([7]; ATB FEP) was 4 µg/mL and the “MIC ATB combined with Example” value ([7]; ATB FOS) was 8 µg/mL. The “MIC ATB combined with Example” value ([7]; ATB MEM) was 1 µg/mL, the “MIC ATB combined with Example” value ([7]; ATB PIP) was over 32 µg/mL and the “MIC ATB combined with Example compound” value ([7]; MIC of CIP) was 1 µg/mL. The “MIC ATB combined with Example compound” value ([7]; MIC of CPO) was 8 µg/mL, the MIC ([7]; substance alone) was over 32 µg/mL and the “MIC ATB combined with Example” value ([8]; ATB ATM) was 8 µg/mL. The “MIC ATB combined with Example” value ([8]; ATB FEP) was 4 µg/mL, the “MIC ATB combined with Example” value ([8]; ATB FOS) was over 128 µg/mL and the “MIC ATB combined with Example” value ([8]; ATB MEM) was 2 µg/mL. For the same compound, the “MIC ATB combined with Example” value ([8]; ATB PIP) was over 32 µg/mL, the “MIC ATB combined with Example compound” value ([8]; MIC of CIP) was 0.125 µg/mL and the “MIC ATB combined with Example compound” value ([8]; MIC of CPO) was 8 µg/mL. For the same compound, the MIC ([8]; substance alone) was 32 µg/mL, the “MIC ATB combined with Example” value ([9]; ATB ATM) was under 0.031 µg/mL and the “MIC ATB combined with Example” value ([9]; ATB FEP) was under 0.031 µg/mL. For the same compound, the “MIC ATB combined with Example” value ([9]; ATB FOS) was under 0.125 µg/mL, the “MIC ATB combined with Example” value ([9]; ATB MEM) was under 0.031 µg/mL and the “MIC ATB combined with Example” value ([9]; ATB PIP) was under 0.031 µg/mL. For the same compound, the “MIC ATB combined with Example compound” value ([9]; MIC of CIP, compound @4 μg/ml) was under 0.031 µg/mL, the MIC ([9]; substance alone) was 0.5 µg/mL and the “MIC ATB combined with Example” value ([10]; ATB ATM) was under 0.031 µg/mL. For the same compound, the “MIC ATB combined with Example” value ([10]; ATB FEP) was under 0.031 µg/mL, the “MIC ATB combined with Example” value ([10]; ATB FOS) was under 0.125 µg/mL and the “MIC ATB combined with Example” value ([10]; ATB MEM) was under 0.031 µg/mL. For the same compound, the “MIC ATB combined with Example” value ([10]; ATB PIP) was under 0.031 µg/mL, the “MIC ATB combined with Example compound” value ([10]; MIC of CIP) was under 0.031 µg/mL and the “MIC ATB combined with Example compound” value ([10]; MIC of CPO) was under 0.031 µg/mL. For the same compound, the MIC ([10]; substance alone) was 0.5 µg/mL, the “MIC ATB combined with Example” value ([11]; ATB ATM) was under 0.031 µg/mL and the “MIC ATB combined with Example” value ([11]; ATB FEP) was under 0.031 µg/mL. For the same compound, the “MIC ATB combined with Example” value ([11]; ATB FOS) was “<=0.125 μg/mL”, the “MIC ATB combined with Example” value ([11]; ATB MEM) was “<=0.031 μg/mL” and the “MIC ATB combined with Example” value ([11]; ATB PIP) was under 0.031 µg/mL. The “MIC ATB combined with Example compound” value ([11]; MIC of CIP) was under 0.031 µg/mL, the “MIC ATB combined with Example compound” value ([11]; MIC of CLI) was under 0.0010 µg/mL and the “MIC ATB combined with Example compound” value ([11]; MIC of CPO) was under 0.031 µg/mL. For the same compound, the “MIC ATB combined with Example compound” value ([11]; MIC of DAP) was under 0.0020 µg/mL, the “MIC ATB combined with Example compound” value ([11]; MIC of ERY) was under 0.0020 µg/mL and the “MIC ATB combined with Example compound” value ([11]; MIC of LZD) was under 0.0078 µg/mL. The “MIC ATB combined with Example compound” value ([11]; MIC of RIF) was under 0.00012 µg/mL, the “MIC ATB combined with Example compound” value ([11]; MIC of SYN) was under 0.0020 µg/mL and the “MIC ATB combined with Example compound” value ([11]; MIC of VAN) was under 0.0039 µg/mL. The MIC ([11]; substance alone, SAU 29213 (MSSA 29213)) was 4 µg/mL.
